In patent US7902235B2 (priority 2004, dated 2011):

System: not given
Conditions: not given

Row | Molecule | melting point
1 | O=C(NC(=O)c1cccc(-c2noc(-c3ccccc3F)n2)c1)Nc1ncccn1 [Compound 8] | 247 to 249 °C
2 | CC(C)OC(=O)NC(=O)c1cccc(-c2noc(-c3ccccc3F)n2)c1 [Compound 3] | 172 to 174 °C
3 | O=C(NC(=O)c1cccc(-c2noc(-c3ccccc3F)n2)c1)Nc1ccccn1 [Compound 9] | 252 to 254 °C
4 | COCCOC(=O)NC(=O)c1cccc(-c2noc(-c3ccccc3F)n2)c1 [Compound 21] | 139 to 141 °C
5 | NC(=O)NC(=O)c1cccc(-c2noc(-c3ccccc3F)n2)c1 [Compound 6] | 240 °C
6 | O=C(NC(=O)N1CCCC1)c1cccc(-c2noc(-c3ccccc3F)n2)c1 [Compound 24] | 178 to 180 °C
7 | O=C(NC(=O)c1cccc(-c2noc(-c3ccccc3F)n2)c1)OCCN1CCOCC1 [Compound 12] | 223 to 224 °C
8 | O=C(NC(=O)c1cccc(-c2noc(-c3ccccc3F)n2)c1)Oc1ccccc1 [Compound 10] | 252 to 254 °C
9 | O=C(NC(=O)N1CCOCC1)c1cccc(-c2noc(-c3ccccc3F)n2)c1 [Compound 25, Morpholine-4-carboxylic Acid 3-[5-(2-fluorophenyl)-[1,2,4]oxadiazol-3-yl]benzoylamide] | 190 to 194 °C
10 | COC(=O)NC(=O)c1cccc(-c2noc(-c3ccccc3F)n2)c1 [Compound 1] | 176 to 177 °C
11 | O=C(NC(=O)c1cccc(-c2noc(-c3ccccc3F)n2)c1)OC1CCCC1 [Compound 22] | 187 to 190 °C
12 | CONC(=O)NC(=O)c1cccc(-c2noc(-c3ccccc3F)n2)c1 [Compound 5] | 206 to 207 °C
13 | CCOC(=O)NC(=O)c1cccc(-c2noc(-c3ccccc3F)n2)c1 [Compound 2] | 160.5 to 162 °C
14 | O=C(NC(=O)c1cccc(-c2noc(-c3ccccc3F)n2)c1)OCCc1ccccc1 [Compound 16] | 129 to 130 °C
15 | O=C(NC(=O)c1cccc(-c2noc(-c3ccccc3F)n2)c1)NC1CC1 [Compound 4] | 226 to 227.5 °C
16 | O=C(NC(=O)c1cccc(-c2noc(-c3ccccc3F)n2)c1)OC1CCOCC1 [Compound 11] | 177.5 to 179 °C
17 | CCN(CC)C(=O)NC(=O)c1cccc(-c2noc(-c3ccccc3F)n2)c1 [Compound 26] | 161 to 163 °C
18 | O=C(NC(=O)c1cccc(-c2noc(-c3ccccc3F)n2)c1)OC1CCCCC1 [Compound 17] | 172 to 174 °C
19 | O=C(NC(=O)N1CCN(c2ccccc2)CC1)c1cccc(-c2noc(-c3ccccc3F)n2)c1 [Compound 28] | 169 to 173 °C
20 | Cc1cc(C)cc(NC(=O)NC(=O)c2cccc(-c3noc(-c4ccccc4F)n3)c2)c1 [Compound 27] | 247 to 250 °C
21 | CC(OC(=O)NC(=O)c1cccc(-c2noc(-c3ccccc3F)n2)c1)c1ccccc1 (centres unmarked) [Compound 30] | 140 to 141 °C
22 | Cc1ccc(S(=O)(=O)NC(=O)NC(=O)c2cccc(-c3noc(-c4ccccc4F)n3)c2)cc1 [Compound 15] | 188 to 191 °C
23 | O=C(NC(=O)c1cccc(-c2noc(-c3ccccc3F)n2)c1)Oc1cccc2c1CCCC2 [Compound 23] | 199 to 202 °C
24 | O=C(NC(=O)c1cccc(-c2noc(-c3ccccc3F)n2)c1)OCC1CCCCC1 [Compound 18] | 134 to 138 °C
25 | O=C(NC(=O)c1cccc(-c2noc(-c3ccccc3F)n2)c1)OCc1ccccc1 [Compound 19] | 133 to 134 °C
26 | O=C(NCCF)NC(=O)c1cccc(-c2noc(-c3ccccc3F)n2)c1 [Compound 7] | 233 to 234 °C
27 | CCCOC(=O)NC(=O)c1cccc(-c2noc(-c3ccccc3F)n2)c1 [Compound 20] | 152 to 155 °C

The next lines start with the values.

Row | melting point | Molecule
28 | 170 to 173 °C | CC(OC(=O)NC(=O)c1cccc(-c2noc(-c3ccccc3F)n2)c1)C(C)(C)C (racemic) [Compound 37, (±)-{3-[5-(2-Fluorophenyl)-[1,2,4]oxadiazol-3-yl]benzoyl}carbamic Acid 1,2,2-trimethylpropyl Ester]
29 | 119 to 120 °C | CC(=O)NC(=O)c1cccc(-c2noc(-c3ccccc3F)n2)c1 [Compound 45, N-Acetyl-3-[5-(2-fluorophenyl)-[1,2,4]oxadiazol-3-yl]benzamide]
30 | 141 to 143 °C | COCC(C)OC(=O)NC(=O)c1cccc(-c2noc(-c3ccccc3F)n2)c1 (centres unmarked) [Compound 34]
31 | 108 to 109 °C | CC(C)CC(C)OC(=O)NC(=O)c1cccc(-c2noc(-c3ccccc3F)n2)c1 (centres unmarked) [Compound 39]
32 | 193 to 196 °C | C[C@@H](OC(=O)NC(=O)c1cccc(-c2noc(-c3ccccc3F)n2)c1)C(N)=O [Compound 44]
33 | 150 to 152 °C | CC(OC(=O)NC(=O)c1cccc(-c2noc(-c3ccccc3F)n2)c1)C1CC1 (centres unmarked) [Compound 31]
34 | 116 to 118 °C | CC(OC(=O)NC(=O)c1cccc(-c2noc(-c3ccccc3F)n2)c1)c1ccc(F)cc1 (centres unmarked) [Compound 51]
35 | 183 to 184 °C | CC(C)C(=O)NC(=O)c1cccc(-c2noc(-c3ccccc3F)n2)c1 [Compound 46, 3-[5-(2-Fluorophenyl)-[1,2,4]oxadiazol-3-yl]-N-isobutyrl-benzamide]
36 | 161 to 163 °C | CC(OC(=O)NC(=O)c1cccc(-c2noc(-c3ccccc3F)n2)c1)c1ccc(C(F)(F)F)cc1 (centres unmarked) [Compound 40]
37 | 197 to 200 °C | O=C(NC(=O)c1cccc(-c2noc(-c3ccccc3F)n2)c1)OC1CCOC1 (centres unmarked) [Compound 35]
38 | 152 to 156 °C | O=C(NC(=O)c1cccc(-c2noc(-c3ccccc3F)n2)c1)O[C@@H]1CCOC1 [Compound 49]
39 | 168 to 170 °C | CC(C)C(C)OC(=O)NC(=O)c1cccc(-c2noc(-c3ccccc3F)n2)c1 (centres unmarked) [Compound 38]
40 | 168 to 170 °C | O=C(NC(=O)c1cccc(-c2noc(-c3ccccc3F)n2)c1)OC1CCCc2ccccc21 (centres unmarked) [Compound 32]
41 | 120 to 123 °C | CN1C(=O)C[C@H](OC(=O)NC(=O)c2cccc(-c3noc(-c4ccccc4F)n3)c2)C1=O [Compound 43]
42 | 119 to 120 °C | O=C(NC(=O)C(F)(F)F)c1cccc(-c2noc(-c3ccccc3F)n2)c1 [Compound 47]
43 | 132 to 134 °C | O=C(NC(=O)c1cccc(-c2noc(-c3ccccc3F)n2)c1)OC1CCN(Cc2ccccc2)CC1 [Compound 42]
44 | 164 to 165 °C | O=C(NC(=O)c1cccc(-c2noc(-c3ccccc3F)n2)c1)OC(c1ccccc1)C(F)(F)F (centres unmarked) [Compound 33]
45 | 165 to 168 °C | O=C(NC(=O)c1cccc(-c2noc(-c3ccccc3F)n2)c1)OC1Cc2ccccc2C1 [Compound 36]
46 | 180 to 183 °C | CC(OC(=O)NC(=O)c1cccc(-c2noc(-c3ccccc3F)n2)c1)c1ccncc1 (centres unmarked) [Compound 48]

System: tripeptidyl-peptidase 1 (TPP-I)
Conditions: patient-derived LINCL cell line, compound heterozygous Arg208Stop and a rare nonsense mutation; maximal; cited from earlier work

Row | Molecule | TPP-I restored, of normal levels
47 | gentamicin | approximately 7%
